From patent US10471149B2 (Insmed Incorporated, priority 2012, dated 2019)
Like-named read-outs stand apart in the source and are kept apart here.

Tests used:
[1] = cited from earlier work
[2] = animal models of meningitis caused by pneumococci; cited from earlier work
[3] = Chemical stability of vancomycin in aqueous solution (CDP-I formation by HPLC): effect of pH, organic bases, ethanol, ammonium ions; conditions: 4° C. (FIG. 7); high concentration and low pH
Procedure: Selected samples were also incubated at a lower concentration (20 mg/mL).
In buffered samples, an appropriate amount of buffer or amino acid additive was added. The pH values were chosen to cover the range between the lowest and highest acceptable values of pH, including pH 5.0 for lipid stability reasons and pH 6.5, above which degradation is expected to be impractically fast.
The concentration of 200 mg/mL was chosen to mimic what a high intra-liposomal might be but was no higher than this for practical handling purposes. All samples were liquid solutions upon preparation.
For comparison, lower concentration solutions (20 mg/mL) also were prepared by diluting 200 mg/mL samples 10-fold in water. Samples were incubated at 4° C. (in refrigerator) and at ambient temperature (about 23° C., which is referred herein to as “room temperature” or “RT”).

CN[C@H]1C(=O)N[C@@H]2Cc3ccc(cc3)Oc3cc4cc(c3O[C@@H]3O[C@H](C(=O)O)[C@@H](O)[C@H](O)[C@H]3NC(=O)CCCCCCCCC(C)C)Oc3ccc(cc3Cl)[C@@H](O)[C@@H]3NC(=O)[C@H](NC(=O)[C@@H]4NC(=O)[C@@H](NC2=O)c2cc(cc(O)c2Cl)Oc2cc1ccc2O)c1ccc(O)c(c1)-c1c(O[C@H]2O[C@H](CO)[C@@H](O)[C@H](O)[C@@H]2O)cc(O)cc1[C@@H](C(=O)NCCCN(C)C)NC3=O [Dalbavanc in, Dalbavancin]
AUC ([1]; in vivo): 27103 µg·h/mL
Protein binding ([1]; in vivo): 98%
Vd ([1]; in vivo): 0.11 L/kg

CN[C@H](CC(C)C)C(=O)N[C@H]1C(=O)N[C@@H](CC(N)=O)C(=O)N[C@H]2C(=O)N[C@H]3C(=O)N[C@H](C(=O)N[C@H](C(=O)O)c4cc(O)cc(O)c4-c4cc3ccc4O)[C@H](O[C@H]3C[C@](C)(N)[C@@H](O)[C@H](C)O3)c3ccc(c(Cl)c3)Oc3cc2cc(c3O[C@@H]2O[C@H](CO)[C@@H](O)[C@H](O)[C@H]2O[C@H]2C[C@](C)(NCc3ccc(-c4ccc(Cl)cc4)cc3)[C@@H](O)[C@H](C)O2)Oc2ccc(cc2Cl)[C@H]1O [Oritavancin]
concentration in cerebrospinal fluid, % of the serum level [2]: 5%
AUC [1]: 152 µg·h/mL
Protein binding [1]: 90%
Terminal half-life [1]: 360 h

CCCCCCCCCCNCCN[C@@]1(C)C[C@H](O[C@H]2[C@H](Oc3c4cc5cc3Oc3ccc(cc3Cl)[C@@H](O)[C@@H](NC(=O)[C@@H](CC(C)C)NC)C(=O)N[C@@H](CC(N)=O)C(=O)N[C@H]5C(=O)N[C@H]3C(=O)N[C@H](C(=O)N[C@H](C(=O)O)c5cc(O)c(CNCP(=O)(O)O)c(O)c5-c5cc3ccc5O)[C@H](O)c3ccc(c(Cl)c3)O4)O[C@H](CO)[C@@H](O)[C@@H]2O)O[C@@H](C)[C@H]1O [Telavancin]
AUC [1]: 600 µg·h/mL
Protein binding [1]: 90-93%
Terminal half-life [1]: 7 h

CN[C@H](CC(C)C)C(=O)N[C@H]1C(=O)N[C@@H](CC(N)=O)C(=O)N[C@H]2C(=O)N[C@H]3C(=O)N[C@H](C(=O)N[C@H](C(=O)O)c4cc(O)cc(O)c4-c4cc3ccc4O)[C@H](O)c3ccc(c(Cl)c3)Oc3cc2cc(c3O[C@@H]2O[C@H](CO)[C@@H](O)[C@H](O)[C@H]2O[C@H]2C[C@](C)(N)[C@H](O)[C@H](C)O2)Oc2ccc(cc2Cl)[C@H]1O [Vancomycin]
AUC [1]: 260 µg·h/mL
Protein binding [1]: 10-55%
Terminal half-life [1]: 4 to 8 h
Vd [1]: 0.3 L/kg
degradation rate [3]: about 0.1 % per week

Teicoplanin
AUC [1]: 550 µg·h/mL
Protein binding [1]: 90%
Terminal half-life [1]: 83 to 168 h
Vd [1]: 0.9 to 1.6 L/kg
